Measurements reported in ChEMBL document CHEMBL4342488, “Structure-Activity Relationship Study of Covalent Pan-phosphatidylinositol 5-Phosphate 4-Kinase Inhibitors” (ACS Med Chem Lett, 2020).

Tests used:
[1] = biological target: T1, Phosphatidylinositol 5-phosphate 4-kinase type-2 gamma (Homo sapiens, UniProt Q8TBX8); assay: Inhibition of PI5P4Kgamma (unknown origin)
T1 sequence (Q8TBX8 whole entry): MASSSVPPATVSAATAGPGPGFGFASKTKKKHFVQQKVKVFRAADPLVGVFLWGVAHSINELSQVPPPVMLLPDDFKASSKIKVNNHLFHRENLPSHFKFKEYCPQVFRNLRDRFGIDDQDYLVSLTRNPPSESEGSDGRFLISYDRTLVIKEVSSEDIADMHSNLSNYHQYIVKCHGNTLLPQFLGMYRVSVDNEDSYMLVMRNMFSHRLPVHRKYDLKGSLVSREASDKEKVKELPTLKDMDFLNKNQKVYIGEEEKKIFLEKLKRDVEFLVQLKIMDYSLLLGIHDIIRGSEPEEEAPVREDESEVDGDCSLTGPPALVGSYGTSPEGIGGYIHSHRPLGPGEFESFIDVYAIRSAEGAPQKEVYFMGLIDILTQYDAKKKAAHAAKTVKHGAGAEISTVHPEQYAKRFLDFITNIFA

[2] = biological target: T2, Phosphatidylinositol 5-phosphate 4-kinase type-2 beta (Homo sapiens, UniProt P78356); assay: Inhibition of PI5P4Kbeta (unknown origin) incubated for 15 mins in presence of ATP by ADP-Glo assay
T2 sequence (P78356 whole entry): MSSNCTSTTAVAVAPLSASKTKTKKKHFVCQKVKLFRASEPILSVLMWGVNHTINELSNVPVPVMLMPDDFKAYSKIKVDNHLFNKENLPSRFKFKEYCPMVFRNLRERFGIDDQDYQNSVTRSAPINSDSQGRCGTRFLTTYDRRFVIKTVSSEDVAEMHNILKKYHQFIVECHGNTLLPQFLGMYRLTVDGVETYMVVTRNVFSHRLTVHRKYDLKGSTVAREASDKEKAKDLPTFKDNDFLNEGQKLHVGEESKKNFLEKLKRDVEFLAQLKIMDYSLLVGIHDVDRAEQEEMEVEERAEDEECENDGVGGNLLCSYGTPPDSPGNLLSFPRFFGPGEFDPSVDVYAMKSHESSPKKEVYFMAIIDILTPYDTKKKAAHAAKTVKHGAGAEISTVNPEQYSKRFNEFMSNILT

[3] = biological target: T3, Phosphatidylinositol 5-phosphate 4-kinase type-2 alpha (Homo sapiens, UniProt P48426); assay: Inhibition of PI5P4Kalpha (unknown origin) incubated for 15 mins in presence of ATP by ADP-Glo assay
T3 sequence (P48426 whole entry): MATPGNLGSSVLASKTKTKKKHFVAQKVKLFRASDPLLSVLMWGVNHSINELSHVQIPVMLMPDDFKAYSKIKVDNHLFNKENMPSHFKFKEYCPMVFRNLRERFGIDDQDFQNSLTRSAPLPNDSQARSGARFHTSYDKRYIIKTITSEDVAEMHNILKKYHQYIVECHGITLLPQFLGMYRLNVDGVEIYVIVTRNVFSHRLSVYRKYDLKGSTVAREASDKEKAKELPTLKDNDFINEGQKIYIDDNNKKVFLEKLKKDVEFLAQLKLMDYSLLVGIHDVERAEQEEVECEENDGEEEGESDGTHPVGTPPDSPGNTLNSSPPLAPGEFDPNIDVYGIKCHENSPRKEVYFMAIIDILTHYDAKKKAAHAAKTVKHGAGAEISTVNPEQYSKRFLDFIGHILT

Cn1nnnc1Sc1ncnc2scc(-c3cccc(S(C)(=O)=O)c3)c12
IC50 [1]: 15.8 µM

FC(F)(F)c1ccccc1-c1nc(NCc2cccs2)c2ccccc2n1
IC50 [1]: 1 µM

Cc1ccc(-n2ccc3c(Nc4cccc(NC(=O)c5ccc(NC(=O)/C=C/CN(C)C)cc5)c4)ncnc32)cc1
IC50 ([2]; read-out: IC50): 9.9 µM
IC50 ([3]; read-out: IC50): 1.34 µM

CN(C)C/C=C/C(=O)Nc1cccc(NC(=O)N2CCCC(Nc3cc(-c4cnc5[nH]ccc5c4)ncn3)C2)c1 (stereo unspecified)
IC50 [2]: Not Active
IC50 [3]: Not Active
